Measured values reported in patent publication US10919943B2, “Mutant proteins enabling agrochemical control of plant gene expression” (The Regents of the University of California, priority 2016, dated 2021).
Marks after values point to notes of the source that are not given here.

B1: HAB1*: catalytically inactive orthogonal pentuple HAB1 mutant (protein, listed as Arabidopsis thaliana)
chain: MTPAVAMTLSLAANTMCESSPVEITQLKNVTDAADLLSDSENQSFCNGGTECTMEDVSELEEVGEQDLLKTLSDTRSGSSNVFDEDDVLSVVEDNSAVISEGLLVVDAGSELSLSNTAMEIDNGRVLATAIIVGESSIEQVPTAEVLIAGVNQDTNTSEVVIRLPDENSNHLVKGRSVYELDCIPLWGTVSIQGNASEMEAAFAVSPHFLKLPIKMLMGDHEGMSPSLTHLTGHFFGVYDGHGGHKVADYCRDRLHFALAEEIERIKDELCKRNTGEGRQVQWDKVFTSCFLTVDGEIEGKIGRAVVGSSDKVLEAVADETVGSTAVVALVCSSHIVVSNCGDSRAVLFRGKEAMPLSVDHKPDREDEYARIENAGGKVIQWQGARVFGRLAMSRSIGDRYLKPYVIPEPEVTFMPRSREDECLILASDGLWDVMNNQEVCEIARRRILMWHKKNGAPPLAERGKGIDPACQAAADYLSMLALQKGSKDNISIIVIDLKAQAKFKTRT

Columns and labels:
[1] = system: 35S::PYR1^MANDI transgenic strain; experiment: Thermography of leaf temperature after chemical treatment; type: in vivo, Arabidopsis thaliana; conditions: 1 μM then 10 μM mandipropamid, 24 hours after treatment; FIG. 10
Description: To examine the effects of over-expressing either PYR1*^-MANDI or HAB1* in Arabidopsis thaliana, we made 35S-driven GFP-PYR1*^-MANDI and GFP-HAB1* constructs by cloning the mutant genes into the binary vector pEGAD, and the resultant plasmids were transformed into Agrobacterium tumefaciens. The floral dip method was used to generate T0 transgenic seed for both constructs and the T0 seed was germinated in soil containing glufosinate to select for transgenic T1 plants. The PYR1*^-MANDI T1 plants isolated were grown for ˜5 weeks and then treated with mandipropamid, using comparisons to wild type Columbia plants and a previously constructed 35S::PYR1^MANDI transgenic strain as controls. The treated plants were thermographed 24 hours after chemical applications to examine leaf temperature, which increases after ABA responses are activated, due to reduced transpiration. To examine different mandipropamid concentrations, the plants were first treated with 1 μM mandipropamid and then 3 days later were treated again with 10 μM mandipropamid.

[2] = system: pMANDI-UAS-GFP-LEAFY; experiment: Mandipropamid induction of GFP-LEAFY in T1 leaf tissue, GFP fluorescence; type: in vivo, Arabidopsis; conditions: 10 μM mandipropamid, 24 hours; FIG. 15B
Description: To test the efficacy of our transcriptional circuit in planta, we constructed a 3 component system for inducing genes of interest using the mandipropamid mediated interaction of a BD-PYR1*/AD-HAB1* to drive genes of interest from a GAL4-responsive UAS (FIG. 15A). To do this we constructed a BD-PYR1*^-MANDI fusion protein and NLSSV40-VP64-HAB1*-N7 fusion protein and used these to drive gene expression from a synthetic UAS-minimal-35S promoter. To make the desired vector, the three required components were separately cloned into vectors that provided necessary elements (such as the Gal4 DNA binding domain, or 35S-promoter-nos-terminator cassettes). After this, the three components were combined into a plant binary transformation vector.
To combine all three components into a single vector, a 35S::NLS-VP64-HAB1*-N7-Nos-terminator cassette was PCR amplified from pVP64-HAB1*-N7 and cloned into pBD-PYR1* into its SacI site, upstream of the BD-PYR1* expression cassette, yielding pAD-BD. […]
Having developed a simple induction system, we tested it by examining the expression of the flowering regulator LEAFY. […] 24 hours after transfer, both tissues were examined using a GFP fluorescence dissecting scope and documented under identical camera and microscope settings (FIG. 15B).

[3] = Phosphatase activity of recombinant GST-HAB1 proteins (4-methylumbeliferyl phosphate); type: biochemical; conditions: 1 μg protein, percent control (GST-HAB1); FIG. 7
Description: In the presence of ABA, wild type PYR1 binds to HAB1 and docks into its active site, which inhibits its enzymatic activity by blocking access of substrates. To characterize the orthogonal PYR1^! and HAB1^! interaction biochemically, we produced recombinant forms of each protein in E. coli, along with the wild type form, and tested the wild type and orthogonal mutant for their ability to inhibit HAB1 and HAB1^! activities in vitro. We cloned PYR1^! into pET28 to generate 6×-His tagged receptor and cloned HAB1^! into pGEX-4T-1 to create a GST-fusion protein. The previously constructed (S.-Y. Park et al., 2009) wild type 6×-His-PYR1 and GST-HAB1 constructs were used for producing recombinant wild type proteins. The 6×-His-tagged receptors and GST-tagged PP2Cs were expressed and purified as previously described. […] The plates were read using a Victor 2 plate reader (PerkinElmer) (355 nm excitation, 460 nm emission) and assays run in triplicate. The PP2C activity values reported are expressed as percent control values, which were calculated by including the carrier solvent (1% DMSO) and the specific receptor assayed, but no ligand. […]
To characterize HAB1^!-3 and HAB1* in vitro, we cloned them into pGEX-4T-1 to create GST-fusion proteins. […] The PP2C activity values reported are expressed as percent control (GST-HAB1) from triplicate measurements.

Molecule	leaf temperature [1]	GFP-LEAFY induction [2]	catalytic activity in vitro [3]
C#CCOc1ccc(CCNC(=O)C(OCC#C)c2ccc(Cl)cc2)cc1OC (stereo not drawn) [mandipropamid]	strong increase in leaf temperature	GFP-LEAFY induction in response to mandipropamid	
B1			Neither HAB1^!-3 or HAB1* display detectable catalytic activity
